This is an account of results in patent publication US11090304B2 (Amgen Inc., priority 2018, dated 2021).

Where two headings read alike, the source gives them in different places.

Assay [1] relates to Phosphorylation of ERK1/2 in A549 cells. Kind of assay: Phospho-ERK1/2 MSD assay in A549 cells. It counts as cell-based. Particulars: Homo sapiens. How it is done: For compounds in Table 89, the following assay conditions were employed:
Phospho-ERK1/2 MSD Assay:
Sixteen hours prior to compound treatment, MIA PaCa-2 or A549 cells were seeded in 96-well cell culture plates at a density of 25,000 cells/well and incubated at 37° C., 5% CO2. A compound dose-response titration was diluted in growth media, added to appropriate wells of a cell culture plate, and then incubated at 37° C., 5% CO2 for 2 or 4 hours (see Table 15). Following compound treatment, cells were stimulated with 10 ng/mL EGF (Roche 11376454001) for 10 min, washed with ice-cold Dulbecco's phosphate-buffered saline, no Ca^2+ or Mg^2+ (ThermoFisher Scientific 14190144), and then lysed in RIPA buffer (50 mM Tris-HCl pH 7.5, 1% Igepal, 0.5% sodium deoxycholate, 150 mM NaCl, and 0.5% sodium dodecyl sulfate) containing protease inhibitors (Roche 4693132001) and phosphatase inhibitors (Roche 4906837001). Phosphorylation of ERK1/2 in compound-treated lysates was assayed using Phospho-ERK1/2 Whole Cell Lysate kits (Meso Scale Discovery K151DWD) according to the manufacturer's protocol. Assay plates were read on a Meso Scale Discovery Sector Imager 6000, and data were analyzed using a 4-parameter logistic model to calculate IC50 values.

In assay [2] the target is GDP-bound KRAS protein (aa 1-169), containing both G12C and C118A amino acid substitutions (Homo sapiens, UniProt P01116, C118A/G12C). Kind of assay: Coupled nucleotide exchange assay (SOS-mediated, AlphaScreen). In kind it is biochemical. The conditions noted are these: for Coupled exchange IC50 (5 min): 5 min compound pre-incubation; for Coupled exchange IC50 (2 h): 2 h compound pre-incubation. Background: Alpha assays give light when donor and acceptor beads are brought close together.

In assay [3] the test system is Phosphorylation of ERK1/2 in MIA PaCa-2 cells. Kind of assay: Phospho-ERK1/2 MSD assay in MIA PaCa-2 cells. In kind it is cell-based. Put shortly: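 In the procedure, cells were plated a day ahead at 25,000 per well. Next, a dilution series of compound in growth medium was added for 2 or 4 h. EGF (10 ng/mL) stimulation for 10 min preceded washing and RIPA lysis. Lysate phospho-ERK1/2 was read by MSD, with IC50 derived by 4-parameter logistic analysis.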

Where [4] appears, read: A549, 2 h, read-out: p-ERK IC50 (2 h; A549), 2 h compound treatment.
Where [5] appears, read: Homo sapiens, MIA PaCa-2, 2 h, read-out: p-ERK IC50 (2 h; MIA PaCa-2), 2 h compound treatment.
Where [6] appears, read: A549, 4 h, read-out: p-ERK IC50 (4 h; A549), 4 h compound treatment.
Where [7] appears, read: Homo sapiens, MIA PaCa-2, 4 h, read-out: p-ERK IC50 (4 h; MIA PaCa-2), 4 h compound treatment.

Chain of GDP-bound KRAS protein (aa 1-169), containing both G12C and C118A amino acid substitutions (P01116 1-169 isoform P01116-2 G12C/C118A): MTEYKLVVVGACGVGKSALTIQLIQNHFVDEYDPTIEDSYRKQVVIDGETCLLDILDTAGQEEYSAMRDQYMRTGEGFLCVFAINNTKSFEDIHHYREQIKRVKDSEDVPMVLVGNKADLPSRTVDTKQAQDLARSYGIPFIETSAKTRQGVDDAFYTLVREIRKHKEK

For the molecule `C=CC(=O)N1CCN(c2nc(=O)n(-c3c(C)cc(N(C)C)cc3C(C)C)c3nc(-c4ccccc4F)c(Cl)cc23)[C@@H](C)C1` (single isomer, unassigned) [Example 55-16-2], the IC50 was no less than 10000 nM in assay [1] (setting [4]) and 123 nM in assay [3] (setting [5]). In addition, the “Coupled exchange IC50 (5 min)” value in assay [2] is recorded as 0.039 | nda μM.
In the same order, the values of `C=CC(=O)N1CCN(c2nc(=O)n(-c3nccnc3C(C)(C)C)c3nc(-c4c(O)cccc4F)c(Cl)cc23)[C@@H](C)C1` (single isomer, unassigned) [Example 55-23-2] are no less than 10000 nM, 77 nM and 0.062 | nda μM.
Consider `C=CC(=O)N1CCN(c2nc(=O)n(-c3ccccc3C(C)C)c3nc(-c4c(O)cccc4F)c(F)cc23)[C@@H](C)C1` (single isomer, unassigned) [Example 57-6-2], for which the IC50 in assay [1] (setting [4]) was no less than 10000 nM; in assay [3] (read-out: p-ERK IC50 (2 h; MIA PaCa-2), 2 h compound treatment), 99 nM. In assay [2], the “Coupled exchange IC50 (5 min)” value is reported as 0.208 | nda μM.
Regarding `C=CC(=O)N1CCN(c2nc(=O)n(-c3ccccc3C(C)C)c3nc(-c4ccccc4F)c(F)cc23)[C@@H](C)C1` (single isomer, unassigned) [Example 57-7-2], the IC50 was no less than 10000 nM in assay [1] (setting [4]) and 236 nM in assay [3] (setting [5]). Further, the “Coupled exchange IC50 (5 min)” value in assay [2] is 0.384 | nda μM.
Taken in the same sequence, the figures for `C=CC(=O)N1CCN(c2nc(=O)n(-c3ccccc3C(C)C)c3nc(N4CCCCC4)c(Cl)cc23)[C@@H](C)C1` (single isomer, unassigned) [Example 69-1-2] were no less than 10000 nM, 1020 nM and 0.604 | nda μM.
With `C=CC(=O)N1C[C@H](C)N(c2nc(=O)n(-c3c(C)ccnc3C(C)C)c3nc(-c4c(O)cccc4F)c(F)cc23)[C@@H](C)C1` (single isomer, unassigned) [Example 75-3], the IC50 in assay [1] (setting [4]) is no less than 10000 nM; in assay [3] (setting [5]) it was 27 nM. The “Coupled exchange IC50 (5 min)” value in assay [2] is on record as 0.029 | nda μM.
For `C=CC(=O)N1CCN(c2nc(=O)n(-c3c(C)ccnc3C(C)C)c3nc(-c4ccccc4F)c(Cl)nc23)[C@@H](C)C1` (single isomer, unassigned) [Example 111-1], the IC50 was no less than 10000 nM in assay [1] (setting [4]) and 102 nM in assay [3] (setting [5]). The “Coupled exchange IC50 (5 min)” value in assay [2] was 0.076 | nda μM.
As for `C=CC(=O)N1CCN(c2nc(=O)n(-c3c(C)cccc3C)c3nc(-c4c(O)cccc4F)c(Cl)cc23)CC1` [Example 8-8, 6-chloro-1-(2,6-dimethylphenyl)-7-(2-fluoro-6-hydroxyphenyl)-4-(4-(2-propenoyl)-1-piperazinyl)pyrido[2,3-d]pyrimidin-2(1H)-one], the IC50 in assay [1] (setting [6]) was no less than 100000 nM; in assay [3] (setting [5]), 327 nM; in assay [3] (setting [7]) it was 143 nM. Further, in assay [2], the “Coupled exchange IC50 (5 min)” value turned out to be 0.653 µM. For the same molecule, in assay [2], the “Coupled exchange IC50 (2 h)” value was found to be 117 nM.
For `C=CC(=O)N1CCN(c2nc(=O)n(C(CC)CC)c3nc(Cl)c(Cl)cc23)[C@@H](C)C1` [Example 54-3, 6,7-dichloro-4-((2S)-2-methyl-4-(2-propenoyl)-1-piperazinyl)-1-(3-pentanyl) pyrido[2,3-d]pyrimidin-2(1H)-one], the figures for the IC50 in assay [1] (setting [6]) and in assay [3] (setting [7]) were no less than 100000 nM and 8580 nM, respectively. In addition, the “Coupled exchange IC50 (2 h)” value in assay [2] was “nda | 0.781 μM”.
Consider `C=CC(=O)N1CCN(c2nc(=O)n(CC3(C(F)(F)F)CC3)c3nc(-c4c(O)cccc4F)c(Cl)cc23)[C@@H](C)C1` [Example 54-5, 6-chloro-7-(2-fluoro-6-hydroxyphenyl)-4-((2S)-2-methyl-4-(2-propenoyl)-1-piperazinyl)-1-((1-(trifluoromethyl)cyclopropyl)methyl)pyrido [2,3-d]pyrimidin-2(1H)-one], for which the IC50 in assay [1] (setting [4]) is no less than 10000 nM; in assay [3] (setting [5]), 554 nM. The “Coupled exchange IC50 (5 min)” value in assay [2] is given as 0.445 | nda μM.

As a reminder, the IC50 is the concentration at which inhibition is half-maximal.
